# Data published in US9937235B2, “Lipidated peptides as anti-obesity agents” (USTAV ORGANICKE CHEMIE A BIOCHEMIE AKADEMIE VED CR, V.V.I, priority 2012, dated 2018).
# Where a SMILES comes first, the peptide text is derived from it. Where no end group is shown, it is not given here. [ ]: non-standard residue; d: D form. The star is where a group is joined. 1Nal = N[C@@H](Cc1cccc2ccccc12)C(=O)O; Myristoyl = CCCCCCCCCCCCCC(=O)*; Nle = CCCC[C@H](N)C(=O)O; Dap = NC[C@H](N)C(=O)O
# What was measured:
# [1] = tested on: MAPK/ERK1/2 signaling pathway in RC-4B/C cells; test: MAPK/ERK1/2 signaling in RC-4B/C cells (Western blot); assay type: cell-based, rat; settings: 10^−6 mol·l^−1, 5 minute incubation
# Procedure: RC-4B/C cells, which were used to determine if lipidated PrRP20 analogs are able to initiate the MAPK/ERK1/2 signaling pathway, were grown in 6-well plates up to the optimal density of […]. Seventeen hours before sample harvest, the growth medium was replaced by a serum-free medium lacking epidermal growth factor (EGF). The respective lipidated PrRP analog was added to each well in the final concentration of 10^−6 mol·l^−1. After a 5 minute incubation at 37° C., the plate was placed on ice and each well was rinsed three times with PBS pH 7.4 (137 mmol·l^−1 NaCl, 2.7 mmol·l^−1 KCl, 8 mmol·l^−1 Na2HPO4.2H2O a 1.76 mmol·l^−1 KH2PO4) and cooled to 4° C. […] Samples were collected in at least three independent experiments.
# To determine if the lipidated PrRP20 analogs initiated the MAPK/ERK1/2 signaling pathway, Western blot analysis was used. Electrophoresis was performed on 5%/12% polyacrylamide gel in the presence of SDS (SDS-PAGE) on the instrument MiniProtean 3 (BioRad, Herkules, Calif., USA). Samples that were loaded on the gel were first disintegrated by ultrasound, then heated at 100° C. for 2 minutes, and centrifuged for 5 minutes at 500×g at room temperature. […] Electrophoresis was performed at a constant voltage of 100 V for 10 minutes, or for 60 minutes at 150 V.
# To show the presence of phosphorylated proteins in the samples, the proteins from the SDS-PAGE gel were transferred to the Immobilon™-P PVDF (polyvinylidene difluoride) membrane (Sigma-Aldrich, USA). The transfer was performed in blotting buffer at pH 8.3 (25 mmol·l^−1 Tris, 192 mmol·l^−1 glycine and 20% methanol) for 20 hours at 4° C. at a constant voltage of 30 V.
# After the protein transfer to the PVDF membrane, the membranes were washed for 5 minutes in TBS washing buffer (20 mmol·l^−1 Tris, 140 mmol·l^−1 NaCl and 0.1% Tween-20) and then incubated for 1 hour in blocking buffer (TBS with 5% non-fat milk powder and 5 mmol·l^−1 Na3VO4 and 50 mmol·l^−1 NaF) at room temperature. Further, the membranes were washed three times for 5 minutes using the TBS washing buffer. The membranes were then incubated with the primary antibody against phospho-p44/42 MAPK(Thr202/Tyr204) (Cell Signaling Technology, Beverly, USA) which was diluted in blocking buffer at 1:1000. After the next three washes with the TBS washing buffer for 5 minutes, the membranes were incubated for 1 hour with rabbit secondary antibody labeled with peroxidase (Sigma, St. Louis, USA) which was diluted in blocking buffer at 1:12,000.
# The membranes were then washed three times in TBS washing buffer for 5 minutes and then the solution Femto (Pierce SuperSignal, Thermo Fisher Scientific, Rockford, Ill., USA) was applied. The induced chemiluminiscence was detected by a CCD camera (LAS 3000, Fuji Photo Film GmBH, Düsseldorf, Germany).
# To assess the initiation of signaling pathways, a densitometric analysis using the program Quantity One (BioRad, Hercules, Calif., USA) was used. For statistical evaluation of the statistically significant response of the cellular signaling, one-way ANOVA with subsequent Dunnett post-hoc test was used. Data was statistically significant at P<0.05.
# [2] = tested on: fasted C57BL/6 mice; test: Food intake in fasted mice after SC administration; assay type: in vivo, mouse; settings: for food intake / % control: SC administration; for % control: food intake vs saline
# In short: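 Male C57BL/6 mice, food-deprived 17 h, received saline, PrRP or lipidated analogs either SC at 1-10 mg/kg or ICV into the third ventricle at 4 nmol/mouse.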
# [3] = target: T1, rat PrRP receptor (GPR10) in RC-4B/C cells (Rattus norvegicus, UniProt Q64121); test: Competitive binding to rat pituitary RC-4B/C cells; settings: ^125I-rat PrRP31, RC-4B/C cells
# T1 construct: host or cells: RC-4B/C rat pituitary cell line
# T1 sequence (Q64121 1-370): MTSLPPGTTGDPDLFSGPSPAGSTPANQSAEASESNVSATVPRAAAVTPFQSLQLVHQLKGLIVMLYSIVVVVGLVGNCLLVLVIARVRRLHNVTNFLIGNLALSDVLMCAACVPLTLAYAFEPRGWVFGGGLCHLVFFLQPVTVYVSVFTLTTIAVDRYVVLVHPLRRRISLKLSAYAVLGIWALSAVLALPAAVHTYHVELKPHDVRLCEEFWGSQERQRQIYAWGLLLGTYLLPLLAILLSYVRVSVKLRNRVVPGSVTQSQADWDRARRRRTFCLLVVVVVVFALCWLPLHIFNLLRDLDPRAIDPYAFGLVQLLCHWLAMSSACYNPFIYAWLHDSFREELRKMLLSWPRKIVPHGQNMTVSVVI
# [4] = tested on: fasted C57BL/6 mice; test: Food intake in fasted mice after ICV administration; assay type: in vivo; settings: 4 nmol/mouse; for % control: food intake vs saline
# Procedure: Male C57BL/6 mice (An Lab, Prague 4) were bred in the accredited animal facility in the Institute of Organic Chemistry and Biochemistry, Czech Academy of Sciences, Prague, at the Institute of Molecular Genetics, Prague 4, at the temperature of 22±2° C. with access to food and water ad libitum. The day/night cycle was 12/12 hours (light turned on at 6:00 am). Animals were treated according to the Animal Protection Act (Act No. 246/1992). The males were fed standard chow diet St-1 (Mlýn Kocanda, Praha, Czech Republic) which contained 66% saccharides, 25% proteins and 9% lipids with a caloric value of 3.4 kcal/g.
# The food was withdrawn 17 hours prior to injection of lipidated peptide and free access to water was maintained. The administration of saline, PrRP or lipidated analogs was performed either by SC injection at doses of 1-10 mg/kg (volume 0.2 ml/mouse), or by ICV using infusion pump (cannulae were inserted into the third brain ventricle 4 days before the experiment following the procedure of Maixnerová et al. (Maixnerová et al., 2011)). The single dose of peptide was 4 nmol/mouse (5 μl/mouse).
# Fifteen minutes after the lipidated peptide administration, the mice were given pre-weighed food. The food was then weighed every 30 minutes for 5-10 hours. The administration of every dose was performed at least twice and one group of mice consisted of at least 6 mice. The results were presented as % of food intake as compared with the control group injected with saline.
# Statistical evaluation was performed using program Graph-Pad Prism Software (San Diego, Calif., USA), and the one-way ANOVA with a subsequent Dunnettovým post-hoc test. The difference in food intake between mice injected with saline and mice injected with the examined peptide were considered statistically significant at P<0.05.
# [5] = tested on: DIO C57BL/6 male mice; test: 14-day SC administration in diet-induced obese (DIO) mice; assay type: in vivo, mouse
# Procedure: Inbred C57BL/6 male mice (AnLab, Prague, Czech Republic) were housed at a temperature of 23° C. under a daily cycle of 12 hours light and dark (light from 6:00 a.m.) with free access to water and food pellets (St-1, Mlýn Kocanda, Jesenice, Czech Republic).
# At 8 weeks of age, mice were divided into a standard (St) diet-fed group (the energy content of the St-1 diet was 3.4 kcal/g, containing 25, 9, and 66% of calories from protein, fat, and carbohydrate, respectively (St-1, Mlýn Kocanda, Jesenice, Czech Republic)) and a high fat (HF) diet-fed group (the energy content of the HF diet was 5.3 kcal/g, containing 13, 60, and 27% of calories from protein, fat, and carbohydrate, respectively). […] Food intake and body weight were monitored weekly from 9 to 20 weeks of age. Mice resistant to the HF diet were withdrawn from the experiment (approximately 10% of mice).
# At the age of 20 weeks, mice were placed into separate cages with free access to food and water. The following week, mice were subjected to a 14-day food intake experiment. They were injected with palm-PrRP31 or myr-PrRP20 dissolved in saline at doses of 5 mg/kg (n=10) or saline twice a day (at 8:00 and 18:00) for 14 days. Consumption of the St or HF diet and the weight of the mice were simultaneously followed.
# After 14 days of treatment, mice were fasted overnight and sacrificed the following morning. Their blood sera were isolated, and the white adipose tissue (subcutaneous, abdominal, and gonadal), and the liver of all mice were dissected, weighed, and stored at −70° C. Fat to body weight ratio was calculated as a ratio of adipose tissue weight to body weight.
# Serum insulin and leptin concentrations were measured by RIA assays. Serum glucose levels were measured using a Glucocard glucometer (Arkray, Kyoto, Japan). Serum triglyceride levels were measured by quantitative enzymatic reactions (Sigma, St. Louis, USA).
# They were analyzed by a one-way ANOVA followed by a Dunnett post-hoc test (metabolic parameters, behavioral study) or two-way ANOVA followed by a Bonferroni post-hoc test (body weight evaluation) using Graph-Pad Software (San Diego, Calif., USA). P<0.05 was considered statistically significant.
# [6] = 5 mg/kg SC twice a day, 14 days, 17 h fasted DIO male mice
# [7] = serum, 5 mg/kg SC twice a day, 14 days, 17 h fasted DIO male mice
# [8] = 45 minutes, dose not stated for these substances
# [9] = 300 minutes, dose not stated for these substances
compound,measurement,setting,value
CCCCCCCCCCCCCC(=O)NC[C@H](N)C(=O)N[C@@H](CCCNC(=N)N)C(=O)N[C@@H](C)C(=O)N[C@@H](Cc1c[nH]cn1)C(=O)N[C@@H](CCC(N)=O)C(=O)N[C@@H](Cc1c[nH]cn1)C(=O)N[C@@H](CO)C(=O)N[C@@H](CCCC)C(=O)N[C@@H](CCC(=O)O)C(=O)N[C@H](C(=O)N[C@@H](CCCNC(=N)N)C(=O)N[C@H](C(=O)N1CCC[C@H]1C(=O)N[C@@H](CC(=O)O)C(=O)N[C@H](C(=O)N[C@@H](CC(N)=O)C(=O)N1CCC[C@H]1C(=O)N[C@@H](C)C(=O)N[C@@H](Cc1c[nH]c2ccccc12)C(=O)N[C@@H](Cc1ccc(O)cc1)C(=O)N[C@H](C(=O)NCC(=O)N[C@@H](CCCNC(=N)N)C(=O)NCC(=O)N[C@H](C(=O)N[C@@H](CCCNC(=N)N)C(=O)N1CCC[C@H]1C(=O)N[C@H](C(=O)NCC(=O)N[C@@H](CCCNC(=N)N)C(=O)N[C@@H](Cc1cccc2ccccc12)C(N)=O)C(C)C)[C@@H](C)CC)[C@@H](C)O)[C@@H](C)CC)[C@@H](C)O)[C@@H](C)O [Analog 9] (H-[Dap](Myristoyl)RAHQHS[Nle]ETRTPDINPAWYTGRGIRPVGR[1Nal]-NH2),ERK signaling,[1],agonist
same,dose dependence of the lowering of food intake,"[2]; SC administration, 1, 2, 5 and 10 mg/kg, FIG. 5 and 6",dose dependent
same,food intake,"[2]; 45 minutes, 10 mg/kg",0.01 g
same,% control,"[2]; 45 minutes, 10 mg/kg",2%
same,food intake,"[2]; 300 minutes, 10 mg/kg",0.22 g
same,% control,"[2]; 300 minutes, 10 mg/kg",25%
same,% of PrRP31 binding,[3],167%
same,food intake,[4]; 45 minutes,0.28 g
same,% control,[4]; 45 minutes,51%
same,food intake,[4]; 300 minutes,1.03 g
same,% control,[4]; 300 minutes,78%
CCCCCCCCCCCCCC(=O)N[C@H](C(=O)N1CCC[C@H]1C(=O)N[C@@H](CC(=O)O)C(=O)N[C@H](C(=O)N[C@@H](CC(N)=O)C(=O)N1CCC[C@H]1C(=O)N[C@@H](C)C(=O)N[C@@H](Cc1c[nH]c2ccccc12)C(=O)N[C@@H](Cc1ccc(O)cc1)C(=O)N[C@H](C(=O)NCC(=O)N[C@@H](CCCNC(=N)N)C(=O)NCC(=O)N[C@H](C(=O)N[C@@H](CCCNC(=N)N)C(=O)N1CCC[C@H]1C(=O)N[C@H](C(=O)NCC(=O)N[C@@H](CCCNC(=N)N)C(=O)N[C@@H](Cc1ccccc1)C(N)=O)C(C)C)[C@@H](C)CC)[C@@H](C)O)[C@@H](C)CC)[C@@H](C)O [Analog 10] (Myristoyl-TPDINPAWYTGRGIRPVGRF-NH2),ERK signaling,[1],agonist
same,food intake,"[2]; 45 minutes, 5 mg/kg",0.11 g
same,% control,"[2]; 45 minutes, 5 mg/kg",32%
same,% control,"[2]; 300 minutes, 5 mg/kg",44%
same,% of PrRP31 binding,[3],632%
same,food intake,[4]; 45 minutes,0.28 g
same,% control,[4]; 45 minutes,51%
same,food intake,[4]; 300 minutes,1.1 g
same,% control,[4]; 300 minutes,86%
"Myr-PrRP20: myristoylated PrRP20 given to DIO mice; analog number (rat 10 or human 13/55) not stated (Myristoyl-TPDINPAWYASRGIRPVGRF-NH2; ends and bridges not checked; UniProt P81277 34-53, looked up)",Fat/body weight [%],[5]; [6],15.30 ± 0.42%
same,Liver/body weight [%],[5]; [6],3.60 ± 0.18 %
same,Body weight of DIO mice,"[5]; 5 mg/kg SC twice per day for 14 days, FIG. 9",significantly decreased
same,Glucose,[5]; [7],7.52 ± 0.16 mmol/L
same,Insulin,[5]; [7],3.54 ± 0.47 ng/mL
same,Leptin,[5]; [7],39.56 ± 3.47 ng/mL
same,Triglycerides,[5]; [7],68.71 ± 4.16 mg/dL
"TPDINPAWYTGRGIRPVGRF-NH2 [PrRP20, reference compound]",ERK signaling,[1],agonist
same,food intake,[2]; [8],0.32 g
same,% control,[2]; [8],100%
same,food intake,[2]; [9],1.1 g
same,% control,[2]; [9],100%
same,% of PrRP31 binding,[3],143%
same,food intake,[4]; 45 minutes,0.32 g
same,% control,[4]; 45 minutes,68%
same,food intake,[4]; 300 minutes,1.29 g
same,% control,[4]; 300 minutes,100%
